Assay results: publication PMC10226046, “Prodrug Strategies for the Development of β-L-5-((E)-2-Bromovinyl)-1-((2S,4S)-2-(hydroxymethyl)-1,3-(dioxolane-4-yl))uracil (L-BHDU) against Varicella Zoster Virus (VZV)” (Journal of Medicinal Chemistry, 2023)

Legend:
[1] = Stability in gastric and intestinal juice; format: in vitro ADME; conditions: data not shown
VZV-ORF57-ΔTKTS = assay: microbe, parasite or virus in culture; format: cell-based, Varicella zoster virus; conditions: Human alphaherpesvirus 3, ARPE-19
[2] = In vitro stability in mouse liver homogenates (LC-MS/MS); format: in vitro ADME, BALB/c mice; conditions: 37 °C; converted to L-BHDU and L-BHDU-MP
Method: The antiviral efficacy of POM-L-BHDU-MP prompted us to perform pharmacokinetic studies on POM-L-BHDU-MP in vitro and in vivo. […] In liver homogenates, POM-L-BHDU-MP converted to L-BHDU and L-BHDU-MP (Figure 4). POM-L-BHDU-MP incubated with homogenized mouse liver was unstable and converted to L-BHDU and L-BHDU-MP. The concentration of L-BHDU increased steadily, reaching 1.9 μg/mL after 60 min. L-BHDU-MP appeared rapidly and reached maximal concentration (4.6 μg/mL) after 4 min, which is 32-fold higher than the corresponding L-BHDU concentration. Thus, POM-L-BHDU-MP likely converts rapidly into L-BHDU-MP and more slowly into L-BHDU in the liver.
Untreated BALB/c mice were euthanized, and their livers were immediately removed. […] The concentration of POM-L-BHDU-MP, L-BHDU, and L-BHDU-MP were determined using LC-MS/MS.
The primary stock solutions for the calibration were prepared at 0.5 mg/mL for L-BHDU, 1 mg/mL for POM-L-BHDU-MP, and 1 mg/mL for L-BHDU-MP. […] The samples were analyzed in a negative ESI mode. […] The collision gas was argon with a collision cell pressure of 3.18 × 10^–3 mbar, and the collision energy was 30 V. A multiple reaction monitoring (MRM) function was used to quantify the analytes using the following ion transitions: 266.1 → 223.2 for AZT (ISTD), 318.7 → 80.7 for L-BHDU, 398.7 → 180.9 for L-BHDU-MP, and 626.6 → 325 for POM-L-BHDU-MP.

CC(C)(C)C(=O)OCOP(=O)(OCOC(=O)C(C)(C)C)OC[C@H]1OC[C@@H](n2cc(/C=C/Br)c(=O)[nH]c2=O)O1 [POM-L-BHDU-MP (41), Bis(POM) Prodrug of L-BHDU-MP]
stability in gastric and intestinal juice [1]: good stability
EC50 (VZV-ORF57-ΔTKTS): > 2000 nM
stability in homogenized mouse liver [2]: unstable
